The values that follow come from ChEMBL document CHEMBL1201862, “PubChem BioAssay data set” (2004).

Data set [1] is described as follows: Trypanosoma cruzi growth suppression in host cells – NIH3T3 host cells, beta-gal luminescence, confirmation (AID 2044).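 Further: intracellular parasites grown in NIH/3T3 mouse fibroblasts as host cells; luminescent beta-galactosidase reporter signal from transgenic T. cruzi replicating inside host cells; inhibitors lower the luminescence signal.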 It counts as functional, cell-based.
The nature of data set [2]: NIH3T3 cell viability loss – ATP luminescence, mouse fibroblasts, counter-screen, dose response (AID 2010).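 Further: cells exposed to compound for about 90 hours before reading.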 It counts as functional, cell-based.
The target in data set [3] is Cytochrome P450 2C19 (Homo sapiens, UniProt P33261). Description: Cytochrome panel assay with activity outcomes. Panel member name: p450-cyp2c19 Compounds with AC50 equal or less than 10 uM are considered active. It counts as functional.
The target in data set [4] is Cytochrome P450 2C9 (Homo sapiens, UniProt P11712).
Data set [5] has as its target T1, Cytochrome P450 1A2 (Homo sapiens, UniProt P05177).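 Further: PubChem cytochrome P450 panel assay, CYP1A2 panel member.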
T1 sequence (P05177 whole entry): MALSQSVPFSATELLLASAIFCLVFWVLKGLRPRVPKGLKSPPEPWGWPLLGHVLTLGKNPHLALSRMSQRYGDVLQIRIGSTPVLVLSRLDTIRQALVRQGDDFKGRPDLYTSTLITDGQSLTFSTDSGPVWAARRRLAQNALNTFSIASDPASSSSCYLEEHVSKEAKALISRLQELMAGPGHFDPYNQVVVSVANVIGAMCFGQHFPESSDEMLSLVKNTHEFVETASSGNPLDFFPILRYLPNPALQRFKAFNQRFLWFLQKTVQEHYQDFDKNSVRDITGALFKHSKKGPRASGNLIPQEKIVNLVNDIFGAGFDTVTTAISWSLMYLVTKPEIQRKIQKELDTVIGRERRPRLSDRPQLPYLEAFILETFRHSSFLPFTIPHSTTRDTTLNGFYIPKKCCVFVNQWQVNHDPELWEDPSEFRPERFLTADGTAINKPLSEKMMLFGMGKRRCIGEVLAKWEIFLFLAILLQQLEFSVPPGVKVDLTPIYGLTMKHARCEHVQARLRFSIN

The target in data set [6] is Cytochrome P450 2D6 (Homo sapiens, UniProt P10635).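 Further: CYP2D6 member of a cytochrome P450 panel assay.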

Where “and” joins values, the source holds several entries; their conditions need not be identical. Equal entries are not always repeated. Calls of active or inactive are those of the source. A value given as a limit tells only on which side of the number the result lay.

Cytochrome P450 2C9, sequence (P11712 whole entry): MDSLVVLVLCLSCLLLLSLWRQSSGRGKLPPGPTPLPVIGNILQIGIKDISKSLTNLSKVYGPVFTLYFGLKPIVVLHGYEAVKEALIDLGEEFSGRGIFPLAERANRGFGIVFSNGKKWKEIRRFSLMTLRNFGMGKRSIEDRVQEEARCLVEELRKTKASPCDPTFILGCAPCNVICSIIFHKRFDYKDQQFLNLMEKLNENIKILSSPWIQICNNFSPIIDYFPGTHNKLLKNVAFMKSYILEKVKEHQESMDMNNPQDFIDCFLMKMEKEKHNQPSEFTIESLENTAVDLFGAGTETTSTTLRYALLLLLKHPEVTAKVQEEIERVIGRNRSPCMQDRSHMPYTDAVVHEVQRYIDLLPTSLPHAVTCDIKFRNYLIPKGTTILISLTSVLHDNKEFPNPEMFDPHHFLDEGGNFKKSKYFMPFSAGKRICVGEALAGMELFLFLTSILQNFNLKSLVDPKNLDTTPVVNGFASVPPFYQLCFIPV
Cytochrome P450 2C19, sequence (P33261 whole entry): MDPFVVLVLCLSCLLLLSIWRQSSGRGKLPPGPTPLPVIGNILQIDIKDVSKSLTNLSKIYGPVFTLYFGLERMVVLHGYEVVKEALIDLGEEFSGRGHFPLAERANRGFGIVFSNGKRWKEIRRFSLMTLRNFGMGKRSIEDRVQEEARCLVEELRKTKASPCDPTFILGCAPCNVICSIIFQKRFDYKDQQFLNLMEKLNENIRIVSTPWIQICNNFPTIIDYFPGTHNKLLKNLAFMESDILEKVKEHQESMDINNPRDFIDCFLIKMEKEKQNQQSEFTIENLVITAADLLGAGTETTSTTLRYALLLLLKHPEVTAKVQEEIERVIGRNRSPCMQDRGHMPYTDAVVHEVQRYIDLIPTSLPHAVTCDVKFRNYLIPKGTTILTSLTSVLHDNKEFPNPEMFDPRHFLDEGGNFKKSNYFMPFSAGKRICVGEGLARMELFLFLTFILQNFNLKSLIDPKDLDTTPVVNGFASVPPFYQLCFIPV
Cytochrome P450 2D6, sequence (P10635 whole entry): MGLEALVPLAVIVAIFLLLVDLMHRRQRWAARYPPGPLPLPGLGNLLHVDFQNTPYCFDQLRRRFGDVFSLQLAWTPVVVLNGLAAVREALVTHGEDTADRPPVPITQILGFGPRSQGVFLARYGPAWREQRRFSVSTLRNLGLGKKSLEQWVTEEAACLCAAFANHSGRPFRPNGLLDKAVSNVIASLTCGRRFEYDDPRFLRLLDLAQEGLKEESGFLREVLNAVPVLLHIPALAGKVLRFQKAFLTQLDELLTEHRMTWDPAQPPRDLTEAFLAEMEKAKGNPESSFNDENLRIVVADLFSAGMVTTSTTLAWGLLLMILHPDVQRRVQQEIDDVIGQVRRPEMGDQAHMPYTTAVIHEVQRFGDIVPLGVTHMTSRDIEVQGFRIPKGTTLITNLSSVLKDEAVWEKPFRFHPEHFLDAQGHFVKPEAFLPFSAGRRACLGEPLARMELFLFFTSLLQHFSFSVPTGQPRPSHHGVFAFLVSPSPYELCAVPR

With `O=C(CN1CCC(c2nc3ccccc3s2)CC1)NCc1ccccc1`, the results for the EC50 in data set [1] and in data set [2] were 0.237 µM (active) and > 60 µM (not active), respectively.

`CCOc1cc(NC(=O)CC(C)C)c(OCC)cc1N=C(S)Nc1cccc(C)c1`: in data set [3] (read-out: AC50), the AC50 was 2.51 µM (inconclusive).

`Cc1ccc(C(=O)Nc2cccc(-c3cnc4ccccc4n3)c2)cc1`: the values for the half-maximal activity concentration (AC50) in data set [3] (read-out: AC50) and in data set [4] were 1.58 µM (inconclusive) and 1 µM (inconclusive), respectively.

As for `CC(C)C(=O)NCCn1ccc2ccccc21`, the AC50 in data set [5] was 20 µM (inconclusive).

Regarding `c1cncc(CNc2ncncc2-c2ccc3c(c2)OCO3)c1`, the AC50 in data set [4] was 0.794 µM (inconclusive).

For `Cc1cc(C)n(-c2nc(NC(C)C)nc(NC(C)C)n2)n1`, the concentration at half-maximal activity (AC50) in data set [3] (read-out: AC50) was 35.5 µM (inconclusive).

Turning to `CCCCNC(=O)C1CC(=O)N(CCC(C)C)C1` (stereo not drawn), the AC50 in data set [3] (read-out: AC50) was 25.1 µM (inconclusive).

With `Cc1cccc(-c2nsc(SCC(=O)Nc3nccs3)n2)c1`, the AC50 in data set [6] was 8.91 µM (inconclusive).

For `COc1ccc(OC)c2sc(N3CCN(C(=O)c4ccc([N+](=O)[O-])s4)CC3)nc12`, the EC50 is 1.8 µM (active) in data set [1] and > 60 µM (not active) in data set [2].

As for `Cc1cccc(CNc2nc(-c3c(C)noc3C)nc3ccccc23)c1`, the values for the AC50 in data set [3] (read-out: AC50) and in data set [4] were 3.16 µM (inconclusive) and 0.631 µM (inconclusive), respectively.

Turning to `CC1(O)CC(=O)N(c2ccccc2)O1` (stereo not drawn), the AC50 in data set [5] was 22.4 µM (inconclusive); in data set [3] (read-out: AC50) it was 17.8 µM (inconclusive); in data set [4] it was 10 µM (inconclusive).

Turning to `CN1CCN(c2ncc3ncc(=O)n(CCC#N)c3n2)CC1`, the AC50 in data set [5] was 31.6 µM (inconclusive); in data set [3], “inconclusive”.

Take `Cc1ccc(-c2nnc(-c3ccccc3S(=O)(=O)Cc3ccc(Cl)cc3)o2)cc1`: the AC50 in data set [6] is 0.0355 µM (inconclusive); in data set [3] (read-out: AC50), 7.94 µM (inconclusive); in data set [4], 1.78 µM (inconclusive).

Regarding `CC(C)c1cc(C(C)C)c(S(=O)(=O)N2c3ccccc3[C@@]3(Br)C[C@H]4C(=O)N[C@@H](Cc5ccccc5)C(=O)N4[C@@H]23)c(C(C)C)c1`, the figures for the EC50 in data set [1] and in data set [2] were 2.08 µM (active) and > 60 µM (not active), respectively.

On to `CCOC(=O)c1cc(C#N)c(N2CCN(C)CC2)nc1-c1ccccc1`, for which the half-maximal effective concentration (EC50) was 1.3 µM (active) in data set [1] and > 60 µM (not active) in data set [2].

In the case of `O=c1[nH]n(-c2cccc(Cl)c2)c2ncccc12`, in data set [3] (read-out: AC50), the AC50 was 39.8 µM (inconclusive).

For `Cc1nc2cnc(N3CCN(C)CC3)nc2n(CCC#N)c1=O`, the half-maximal activity concentration (AC50) in data set [5] was 12.6 µM (inconclusive).

Consider `CCn1ccc(C(=O)Oc2ccc(Cl)cc2)n1`, for which the concentration at half-maximal activity (AC50) in data set [6] was 22.4 µM (inconclusive); in data set [3] (read-out: AC50), 11.2 µM (inconclusive); in data set [4], 8.91 µM (inconclusive).

On to `COC(=O)CNC(=O)CN1C(=O)N(c2ccc(Cl)cc2)C(N(O)C(=O)Nc2ccc(Cl)cc2)C1(C)C` (stereo not drawn), for which the half-maximal activity concentration (AC50) was 22.4 µM (inconclusive) in data set [5] and 15.8 µM (inconclusive) in data set [6].

Turning to `Cc1oc(-c2ccccc2Cl)nc1CN1CCCCC1c1cccnc1` (stereo not drawn), the EC50 in data set [1] was 1.2 µM (active); in data set [2], > 60 µM (inconclusive).

On to `Cc1cnc(CNc2ncnc3ccc(-c4ccc(C(=O)N(C)C)cc4)cc23)cn1`, for which, in data set [5], the AC50 is 15.8 µM (inconclusive).

For the compound `NC(=O)[C@@H]1CCCN1Cc1ccc2c(c1)OCO2`, the AC50 in data set [5] was 3.16 µM (inconclusive); in data set [6] it was 3.98 µM (inconclusive); in data set [3] (read-out: AC50) it was 5.01 µM (inconclusive).

For `O=C(c1cnccn1)N1CCC2(CCN(Cc3ccncc3)CC2)CC1`, the AC50 in data set [5] was 25.1 µM (inconclusive).

As to `O=C(N1CCOCC1)N1CCN(c2ccccc2)CC1`, the concentration at half-maximal activity (AC50) in data set [4] was 4.47 µM (inconclusive).

For the compound `COc1cc(C(=O)Nc2nc(-c3ccc(F)cc3)cs2)ccc1OCC(=O)N1CCOCC1`, the results for the EC50 in data set [1] and in data set [2] were 1.36 µM (active) and > 60 µM (not active), respectively.

In the case of `CN(C)c1ccc(/C=C2/C(=O)N(c3ccc([N+](=O)[O-])cc3)N=C2N2CCOCC2)cc1`, in data set [3] (read-out: AC50), the AC50 is 0.0224 µM (inconclusive).

As for `Cc1nc(NC(=O)c2ccccc2)sc1-c1csc(Nc2ccc(Cl)cc2Cl)n1`, the half-maximal activity concentration (AC50) in data set [6] is 12.6 µM (inconclusive).

For `CC(CC(=O)N1CCN(c2ccc(C(F)(F)F)cn2)CC1)n1ccnc1` (stereo not drawn), the EC50 in data set [1] was 1.51 µM (active); in data set [2] it was > 60 µM (not active).

In the case of `CCNc1ncc2nc(-c3ccc(Cl)cc3)c(=O)n(C)c2n1`, the concentration at half-maximal activity (AC50) in data set [6] is 25.1 µM (inconclusive).

Turning to `COc1cc(CCN2C(=O)c3cccc4cccc(c34)C2=O)c(S(=O)(=O)N2CCC(C)CC2)cc1OC`, the EC50 was 1.51 µM (active) in data set [1] and > 60 µM (not active) in data set [2].

For the compound `CC(=O)NCCC(=O)Nc1nc(-c2ccc3ccccc3c2)cs1`, the concentration giving a half-maximal response (EC50) in data set [1] is 2 µM (active); in data set [2] it was > 60 µM (not active).

On to `O=c1cnc2cnc(Nc3ccccc3)nc2n1Cc1cccs1`, for which, in data set [4], the AC50 is 3.16 µM (inconclusive).

For the compound `COC(=O)[C@@]1(Cc2ccc(F)cc2)[C@H]2c3cc(C(=O)N(C)C)n(CCO)c3C[C@H]2CN1C(=O)c1ccccc1`, the concentration at half-maximal activity (AC50) in data set [6] and in data set [3] (read-out: AC50) was 25.1 µM (inconclusive) throughout.

With `CCC(C)(C(=O)NC1CCCC1)N(C(=O)c1ccccn1)c1ccccc1` (stereo not drawn), the AC50 in data set [5] is 10 µM (inconclusive); in data set [3] (read-out: AC50), 8.91 µM (inconclusive).

As to `CCOC(=O)N1CCN(S(=O)(=O)c2ccc3ncc(C(=O)O)c(O)c3c2)CC1`, the concentration at half-maximal activity (AC50) in data set [4] is 15.8 µM (inconclusive).

Regarding `COc1ccc(OC)c(CNc2ccc3c(c2)CCC3)c1`, the results for the EC50 in data set [1] and in data set [2] were 2.08 µM (active) and > 60 µM (not active), respectively.

As for `COC(=O)[C@@]1(Cc2ccc(F)cc2)[C@H]2c3cc(C(=O)N4CCCC4)n(CCN4CNCC4=O)c3C[C@H]2CN1C(=O)c1ccccc1`, the half-maximal activity concentration (AC50) in data set [5] was 15.8 µM (inconclusive); in data set [6], 39.8 µM (inconclusive); in data set [3] (read-out: AC50), 39.8 µM (inconclusive).

For `CCNc1ncc2nc(C)c(=O)n(C[C@H]3CCCO3)c2n1`, the concentration at half-maximal activity (AC50) in data set [6] was 39.8 µM (inconclusive).

As to `Cc1cccc(NC(=O)CSc2nc3ccccc3c3nc(CCc4c(C)n[nH]c4C)nn23)c1`, the AC50 in data set [6] is 8.91 µM (inconclusive).

`c1ccc2c(c1)ncn2-c1ccc(-c2ccnc(-c3ccncc3)n2)cc1`: in data set [6], the half-maximal activity concentration (AC50) was 1.12 µM (inconclusive).

With `O=C(NCCOC12CC3CC(CC(C3)C1)C2)c1cccc(Br)c1`, in data set [5], the half-maximal activity concentration (AC50) is 17.8 µM (inconclusive).

As to `Cc1nnc(SCC(=O)Nc2nccs2)nc1O`, the concentration at half-maximal activity (AC50) was 31.6 µM (inconclusive) in data set [5], 10 µM (inconclusive) in data set [3] (read-out: AC50) and 10 µM (inconclusive) in data set [4].

As for `Cc1ccc(C)c(C(=O)CN2C(=O)c3ccccc3S2(=O)=O)c1`, the half-maximal activity concentration (AC50) in data set [6] was 0.631 µM (inconclusive).

`Cc1ccc(Cl)cc1N=C(S)N(Cc1ccccc1)Cc1cccnc1`: the results for the EC50 in data set [1] and in data set [2] were 0.785 µM (active) and > 60 µM (not active), respectively.

As to `CCOC(=O)CNc1nc(C(C)(C)C)nc2c1nnn2Cc1ccccc1Cl`, the values for the EC50 in data set [1] and in data set [2] were 3.11 µM (active) and > 60 µM (not active), respectively.

For the compound `O=S(=O)(c1ccc(F)cc1)n1ccc(-c2cnc(-c3ccccc3)s2)n1`, in data set [6], the AC50 is 17.8 µM (inconclusive).

For `CN(C)CCCNc1c2c(nc3ccc(Cl)cc13)CCCC2`, the concentration at half-maximal activity (AC50) in data set [5] is 3.16 µM (inconclusive).

Consider `CCCCCCCNC(=O)c1cc(-c2ccncc2)nc2ccccc12`, for which the EC50 in data set [1] was 2.98 µM (active); in data set [2], > 60 µM (not active).

For `CCn1c(=O)c2c(nc3n2CCS3)n(C)c1=O`, the concentration at half-maximal activity (AC50) is 10 µM (inconclusive) in data set [3] (read-out: AC50) and 0.00891 µM (inconclusive) in data set [4].

For `Cc1cn2c(-c3ccncc3)nnc2s1`, the half-maximal activity concentration (AC50) in data set [5] is 10 µM (inconclusive).

For `COc1cccc(NC(=O)CSc2nnc(CN3CCOCC3)n2C)c1`, in data set [3] (read-out: AC50), the AC50 is 28.2 µM (inconclusive).

For the compound `COc1ccc2c(c1)c(C(=O)N/N=C/c1cccc(Br)c1)c(C)n2C`, the 50% effective concentration (EC50) was 0.324 µM (active) in data set [1] and > 60 µM (not active) in data set [2].

Consider `COc1ccc2c(c1)s/c(=N/C(=O)CS(=O)(=O)c1ccc(F)cc1)n2C`, for which the EC50 was 0.328 µM (active) in data set [1] and > 30 µM (not active) in data set [2].

For the compound `C[N+](C)([O-])CCC=C1c2ccccc2CCc2ccccc21` [AMITRIPTYLINOXIDE], in data set [5], the concentration at half-maximal activity (AC50) was 0.794 µM (inconclusive).

In the case of `O=C(O)c1ccccc1Nc1ccccc1` [FENAMIC ACID], the AC50 in data set [5] and in data set [4] was 15.8 µM (inconclusive) throughout.

As for `COc1ccc(Cc2nccc3cc(OC)c(OC)cc23)cc1OC` [PAPAVERINE], the AC50 in data set [5] was 10 µM (inconclusive) and 25.1 µM (inconclusive); in data set [6], 10 µM (inconclusive) and 25.1 µM (inconclusive); in data set [3] (read-out: AC50), 10 µM (inconclusive) and 3.98 µM (inconclusive).
